How the values were obtained:
[1] = tested on: tibialis anterior muscle of C57BL10 mdx mice; assay: Skeletal muscle vascularisation (number of vessels per muscle fibre, anti-laminin / anti-CD31 labelling); assay type: in vivo, mouse; conditions: 50 mg/kg*day per os, two months of daily exposure
Experimental: A quantitative vascularisation study was carried out on sections of tibialis anterior muscle (abbreviated as TA) of healthy C57 mice as well as on mdx mice treated with the vehicle and mdx mice treated with BIO101 or BIO103. Double immunofluorescence labelling is carried out, anti-laminin labelling with the function of identifying the basal membrane of the muscle fibres and anti-CD31 labelling having the function of identifying the vessel. The number of vessels per muscle fibre is quantified. The mdx animals received daily, per os, either the vehicle or BIO101 (50 mg/kg*day) or BIO103 (50 mg/kg*day).

[2] = tested on: myh7 (beta myosin heavy chain); assay: Heart mRNA expression of hypertrophy marker myh7 (semi-quantitative PCR); assay type: in vivo, mouse; conditions: mdx mice, 50 mg/kg*day, two months; p<0.01
Experimental: Twelve-week-old […] gene pool (wild mice referred to as “C57” in the figures) and […] mdx (mouse model of Duchenne muscular dystrophy, referred to as “mdx” in the figures) male mice, produced at Charles Rivers, were used. Two groups of mdx were chronically exposed per os either to BIO101 (number of mice n=9) or to BIO103 (number of mice n=9) at a dose of 50 mg/kg*day. A group of C57 mice (number of mice n=5) and a group of mdx mice (number of mice n=15) received the vehicle, i.e. no treatment. The animals of all of the groups were tested for their functional capacity (exertion tolerance test) after two months of treatment. The exertion tolerance test consists of measuring the maximum distance travelled (in-toto activity; FIGS. 1A and 1B). […] The extract RNA is quantified by spectrophotometry then the quality thereof is verified and validated with the Experion RNA StdSens Analysis Kit (Bio-Rad). […] Finally, semi-quantitative PCR analysis was carried out using SYBR® Green (Roche), a DNA intercalating agent and a LightCycler® 480 Real Time PCR (Roche) apparatus on 384-well plates. The molecular markers measured are as follows: • CTGF and collagen I: connective tissue growth factor (CTGF) is associated with healing and with many pathological fibrotic processes including DMD (Brigstock 2010; Song Y. 2017). […]

[3] = tested on: C57BL10 mdx mice (mouse model of Duchenne muscular dystrophy); assay: Exertion tolerance test (forced motorised treadmill, maximum distance travelled); assay type: in vivo; conditions: 50 mg/kg*day per os, two months of treatment
Experimental: Twelve-week-old […] gene pool (wild mice referred to as “C57” in the figures) and […] mdx (mouse model of Duchenne muscular dystrophy, referred to as “mdx” in the figures) male mice, produced at Charles Rivers, were used. Two groups of mdx were chronically exposed per os either to BIO101 (number of mice n=9) or to BIO103 (number of mice n=9) at a dose of 50 mg/kg*day. A group of C57 mice (number of mice n=5) and a group of mdx mice (number of mice n=15) received the vehicle, i.e. no treatment. The animals of all of the groups were tested for their functional capacity (exertion tolerance test) after two months of treatment. The exertion tolerance test consists of measuring the maximum distance travelled (in-toto activity; FIGS. 1A and 1B). Furthermore, measurements of the maximum absolute isometric strength of the tibialis anterior muscle (in-situ activity; FIGS. 2A and 2B) were made after two months of treatment. The two-month oral treatment consists of force-feeding for five days a week and in drinking water two days a week. The exertion tolerance test is a forced motored treadmill exercise. It is a non-invasive method for assessing in-toto skeletal function. It is gold standard method in the field (Ferry et al. 1992, 1993; Hadj-Said et al. 2012). The acclimatisation period of the animals is at least 48 hours prior to the session during which the maximum running distance is measured. During the test, the mouse is placed in a running corridor on a motorised treadmill which enables a exercise controlled by the tester in the intensity and duration thereof. The treadmill ends with a horizontal grid which administers an electric shock (0.4 mA) if the animal is in contact for more than one second with the grid. The running session starts with a 2-minute warm-up period during which the speed is increased from 0 to 20 cm/s. Subsequently, the running speed is increased by 5 cm/s every 10 minutes up to the limit of the peak capacities of the mouse. When it is subjected to 5 shocks in less than 10 seconds, the test is stopped. The distance travelled is noted.

Compound | increase of the number of vessels per muscle fibre compared to untreated mdx animals (vehicle) [1] [%] | expression of myh7 in heart compared to mdx animals receiving the vehicle [2] | improvement of overall physical performances (in-toto activity) [3] [fold] | improvement of the distance travelled compared to untreated mdx animals (vehicle) [3]
CC(C)(O)CC[C@@H](O)[C@](C)(O)[C@H]1CC[C@@]2(O)C3=CC(=O)[C@@H]4C[C@@H](O)[C@@H](O)C[C@]4(C)[C@H]3CC[C@]12C [BIO101, 20-hydroxyecdysone] | 14.1 | significantly reduces | 2.4 | +136%
CCSCC(=O)[C@H]1CC[C@@]2(O)C3=CC(=O)[C@@H]4C[C@@H](O)[C@@H](O)C[C@]4(C)C3CC[C@]12C (stereo partly drawn) [BIO103, (2S,3R,5R,10R,13R,14S,17S)-17-(2-ethylsulfanylacetyl)-2,3,14-trihydroxy-10,13-dimethyl-2,3,4,5,9,11,12,15,16,17-decahydro-1H-cyclopenta[a]phenanthren-6-one] | 28.2 | significantly reduces | 1.7 | +67%

Reference: patent US11542295B2, “Use of 20-hydroxyecdysone and the derivatives thereof in the treatment of myopathies” (BIOPHYTIS, priority 2017, dated 2023)
